Experimental findings from patent US9187434B2, “Substituted 1,5-benzodiazepinones compounds” (BRISTOL-MYERS SQUIBB COMPANY, priority 2012, dated 2015) are described below.

Tested on in the first series: not listed separately
Briefly: Human metabolic stability half-life assay. As to conditions: liver microsomes, pH 7.4, human liver microsomes, 0.5 μM compound, NADPH, 45-minute time course, read-out: HLM t1/2. In kind it is in vitro ADME. From the text:
Metabolic Stability Half-Life Panel
With `NC(=O)[C@@H](CCC(F)(F)F)[C@@H](CCC(F)(F)F)C(=O)N[C@H]1CN(c2cccc(C3CC3)c2)c2cccc(Cl)c2NC1=O` [Example 1, (2R,3S)—N-((3S)-6-Chloro-1-(3-cyclopropylphenyl)-4-oxo-2,3,4,5-tetrahydro-1H-1,5-benzodiazepin-3-yl)-2,3-bis(3,3,3-trifluoropropyl)succinamide], the half-life at 0.5 μM is not below 31 min.
On the same count and under the same terms, the result for `NC(=O)[C@@H](CCC(F)(F)F)[C@@H](CCC(F)(F)F)C(=O)N[C@H]1CN(c2cccc(Cl)c2)c2ccccc2NC1=O` [Example 3, (2R,3S)—N-((3S)-1-(3-Chlorophenyl)-4-oxo-2,3,4,5-tetrahydro-1H-1,5-benzodiazepin-3-yl)-2,3-bis(3,3,3-trifluoropropyl)succinamide] reads not below 31 min.
Take `NC(=O)[C@@H](CCC(F)(F)F)[C@@H](CCC(F)(F)F)C(=O)N[C@H]1CN(c2cccc(C3CC3)c2)c2ccccc2NC1=O` [Example 5, (2R,3S)—N-((3S)-1-(3-Cyclopropylphenyl)-4-oxo-2,3,4,5-tetrahydro-1H-1,5-benzodiazepin-3-yl)-2,3-bis(3,3,3-trifluoropropyl)succinamide]: the half-life at 0.5 μM is not below 31 min.
For `NC(=O)[C@@H](CCC(F)(F)F)[C@@H](CCC(F)(F)F)C(=O)N[C@H]1CN(c2cccc(Cl)c2)c2cccc(C3CC3)c2NC1=O` [Example 7, (2R,3S)—N-((3S)-1-(3-Chlorophenyl)-6-cyclopropyl-4-oxo-2,3,4,5-tetrahydro-1H-1,5-benzodiazepin-3-yl)-2,3-bis(3,3,3-trifluoropropyl)succinamide], the half-life at 0.5 μM is not below 31 min.
Still for that read-out and setting: the same measure for `NC(=O)[C@@H](CC1CC1)[C@@H](CCC(F)(F)F)C(=O)N[C@H]1CN(c2cccc(C3CC3)c2)c2cccc(F)c2NC1=O` [Example 15, (2R,3S)-3-(Cyclopropylmethyl)-N-((3S)-1-(3-cyclopropylphenyl)-6-fluoro-4-oxo-2,3,4,5-tetrahydro-1H-1,5-benzodiazepin-3-yl)-2-(3,3,3-trifluoropropyl)succinamide]: not below 31 min.
On the same count and under the same terms, the result for `N#Cc1cccc(N2C[C@H](NC(=O)[C@H](CCC(F)(F)F)[C@H](CC3CC3)C(N)=O)C(=O)Nc3c(Cl)cccc32)c1` [Example 25, (2R,3S)—N-((3S)-6-Chloro-1-(3-cyanophenyl)-4-oxo-2,3,4,5-tetrahydro-1H-1,5-benzodiazepin-3-yl)-3-(cyclopropylmethyl)-2-(3,3,3-trifluoropropyl)succinamide] reads not below 31 min; that for `N#Cc1ccccc1N1C[C@H](NC(=O)[C@H](CCC(F)(F)F)[C@H](CC2CC2)C(N)=O)C(=O)Nc2c(Cl)cccc21` [Example 26, (2R,3S)—N-((3S)-6-Chloro-1-(2-cyanophenyl)-4-oxo-2,3,4,5-tetrahydro-1H-1,5-benzodiazepin-3-yl)-3-(cyclopropylmethyl)-2-(3,3,3-trifluoropropyl)succinamide], not below 31 min; that for `N#Cc1cc(F)cc(N2C[C@H](NC(=O)[C@H](CCC(F)(F)F)[C@H](CC3CC3)C(N)=O)C(=O)Nc3c(Cl)cccc32)c1` [Example 28, (2R,3S)—N-((3S)-6-Chloro-1-(3-cyano-5-fluorophenyl)-4-oxo-2,3,4,5-tetrahydro-1H-1,5-benzodiazepin-3-yl)-3-(cyclopropylmethyl)-2-(3,3,3-trifluoropropyl)succinamide], not below 31 min.
The same measure, in the same setting: the result for `NC(=O)[C@@H](CC1CC1)[C@@H](CCC(F)(F)F)C(=O)N[C@H]1CN(c2cccc(C3CC3)c2)c2cccc(Cl)c2NC1=O` [Example 29, (2R,3S)—N-((3S)-6-Chloro-1-(3-cyclopropylphenyl)-4-oxo-2,3,4,5-tetrahydro-1H-1,5-benzodiazepin-3-yl)-3-(cyclopropylmethyl)-2-(3,3,3-trifluoropropyl)succinamide] reads not below 31 min; that for `NC(=O)[C@@H](CCC(F)(F)F)[C@@H](CCC(F)(F)F)C(=O)N[C@H]1CN(c2cccc(Cl)c2)c2cccc(Cl)c2NC1=O` [Example 31, (2R,3S)—N-((3S)-6-Chloro-1-(3-chlorophenyl)-4-oxo-2,3,4,5-tetrahydro-1H-1,5-benzodiazepin-3-yl)-2,3-bis(3,3,3-trifluoropropyl)succinamide], not below 31 min; that for `NC(=O)[C@@H](CCC(F)(F)F)[C@@H](CCC(F)(F)F)C(=O)N[C@H]1CN(c2ccccn2)c2cccc(Cl)c2NC1=O` [Example 33, (2R,3S)—N-((3S)-6-Chloro-4-oxo-1-(2-pyridinyl)-2,3,4,5-tetrahydro-1H-1,5-benzodiazepin-3-yl)-2,3-bis(3,3,3-trifluoropropyl)succinamide], not below 31 min.
In the case of `NC(=O)[C@@H](c1ccccc1)[C@@H](CCC(F)(F)F)C(=O)N[C@H]1CN(c2cccc(C(F)(F)F)n2)c2cccc(Cl)c2NC1=O` [Example 34, (2R,3R)—N-((3S)-6-Chloro-4-oxo-1-(6-(trifluoromethyl)-2-pyridinyl)-2,3,4,5-tetrahydro-1H-1,5-benzodiazepin-3-yl)-3-phenyl-2-(3,3,3-trifluoropropyl)succinamide], the half-life at 0.5 μM is not below 31 min.
On to `NC(=O)[C@@H](CCC(F)(F)F)[C@@H](CCC(F)(F)F)C(=O)N[C@H]1CN(c2ccccc2)c2ccc(F)cc2NC1=O` [Example 37, (2R,3S)—N-((3S)-7-Fluoro-4-oxo-1-phenyl-2,3,4,5-tetrahydro-1H-1,5-benzodiazepin-3-yl)-2,3-bis(3,3,3-trifluoropropyl)succinamide], for which the half-life at 0.5 μM is not below 31 min.

A further series concerns human Notch 3. Briefly: Notch-CBF1 Transactivation Assay (Notch 3). Type of series: cell-based. As to conditions: HeLa cells co-transfected with truncated Notch 3 and CBF1 luciferase reporter; 18 hours incubation. From the text: (§1) Notch-CBF1 Transactivation Assay
(§2) Table 12 denotes respective DNA quantity for the transfections.
(§3) Duplicates were used for each sample.
`N#Cc1ccccc1N1C[C@H](NC(=O)[C@H](CCC(F)(F)F)[C@H](CC2CC2)C(N)=O)C(=O)Nc2c(Cl)cccc21` [Example 26, (2R,3S)—N-((3S)-6-Chloro-1-(2-cyanophenyl)-4-oxo-2,3,4,5-tetrahydro-1H-1,5-benzodiazepin-3-yl)-3-(cyclopropylmethyl)-2-(3,3,3-trifluoropropyl)succinamide] had an IC50 of 46.2 nM.

The next series relates to human Notch 1. Briefly: Notch-CBF1 Transactivation Assay (Notch 1). Type of series: cell-based. The conditions noted are these: HeLa cells co-transfected with truncated Notch 1 and CBF1 luciferase reporter; 18 hours incubation.
Source text: as §1, §2, §3
In the case of `NC(=O)[C@@H](CCC(F)(F)F)[C@@H](CCC(F)(F)F)C(=O)N[C@H]1CN(c2ccc(Cl)cc2)c2ccccc2NC1=O` [Example 4, (2R,3S)—N-((3S)-1-(4-Chlorophenyl)-4-oxo-2,3,4,5-tetrahydro-1H-1,5-benzodiazepin-3-yl)-2,3-bis(3,3,3-trifluoropropyl)succinamide], the IC50 was 17.4 nM.
As for `NC(=O)[C@@H](CCC(F)(F)F)[C@@H](CCC(F)(F)F)C(=O)N[C@H]1CN(c2ccc(F)cc2)c2ccccc2NC1=O` [Example 6, (2R,3S)—N-((3S)-1-(4-Fluorophenyl)-4-oxo-2,3,4,5-tetrahydro-1H-1,5-benzodiazepin-3-yl)-2,3-bis(3,3,3-trifluoropropyl)succinamide], half-maximal inhibition (IC50) required 13.9 nM.
The same measure, in the same setting: the result for `N#Cc1cccc(N2C[C@H](NC(=O)[C@H](CCC(F)(F)F)[C@H](CCC(F)(F)F)C(N)=O)C(=O)Nc3c(C(F)F)cccc32)c1` [Example 10, (2R,3S)—N-((3S)-1-(3-Cyanophenyl)-6-(difluoromethyl)-4-oxo-2,3,4,5-tetrahydro-1H-1,5-benzodiazepin-3-yl)-2,3-bis(3,3,3-trifluoropropyl)succinamide] reads 12 nM.
As to `N#Cc1cccc(N2C[C@H](NC(=O)[C@H](CCC(F)(F)F)[C@H](CCC(F)(F)F)C(N)=O)C(=O)Nc3c(F)cccc32)c1` [Example 17, (2R,3S)—N-((3S)-1-(3-Cyanophenyl)-6-fluoro-4-oxo-2,3,4,5-tetrahydro-1H-1,5-benzodiazepin-3-yl)-2,3-bis(3,3,3-trifluoropropyl)succinamide], the IC50 is 17.6 nM.
The molecule `N#Cc1cccc(N2C[C@H](NC(=O)[C@H](CCC(F)(F)F)[C@H](CCC(F)(F)F)C(N)=O)C(=O)Nc3c(Cl)cccc32)c1` [Example 23, (2R,3S)—N-((3S)-6-Chloro-1-(3-cyanophenyl)-4-oxo-2,3,4,5-tetrahydro-1H-1,5-benzodiazepin-3-yl)-2,3-bis(3,3,3-trifluoropropyl)succinamide] returned a 50% inhibitory concentration (IC50) of 11.6 nM.
Still for that read-out and setting: the same measure for `N#Cc1cccc(N2C[C@H](NC(=O)[C@H](CCC(F)(F)F)[C@H](CC3CC3)C(N)=O)C(=O)Nc3c(Cl)cccc32)c1` [Example 25, (2R,3S)—N-((3S)-6-Chloro-1-(3-cyanophenyl)-4-oxo-2,3,4,5-tetrahydro-1H-1,5-benzodiazepin-3-yl)-3-(cyclopropylmethyl)-2-(3,3,3-trifluoropropyl)succinamide]: 14.6 nM; for `N#Cc1ccccc1N1C[C@H](NC(=O)[C@H](CCC(F)(F)F)[C@H](CC2CC2)C(N)=O)C(=O)Nc2c(Cl)cccc21` [Example 26, (2R,3S)—N-((3S)-6-Chloro-1-(2-cyanophenyl)-4-oxo-2,3,4,5-tetrahydro-1H-1,5-benzodiazepin-3-yl)-3-(cyclopropylmethyl)-2-(3,3,3-trifluoropropyl)succinamide]: 22.5 nM.
